These results are taken from patent publication US11731977B2, “SGC stimulators” (Cyclerion Therapeutics, Inc., priority 2016, dated 2023).

For test [1], the system named is rats. The test is described as follows: Acute and tonic pain: healthy rats, paw pressure test (Example 13). As to conditions: Morphine 4 mg/kg s.c.
Method: Paw Pressure Test. Static mechanical hyperalgesia is measured. This test requires the application of an increasing pressure on the hind paws between a flat surface and a blunt pointer. To evaluate the analgesic action of a compound, one hind paw of the animal was inflamed by an injection or injured by ligation, while the other hind paw was not injured or inflamed. The apparatus exerted a steadily increasing force on the hind paws. The reaction threshold was determined as the pressure (g) required to elicit paw withdrawal and/or vocalization. The animals were gently handled by the experimenter and static mechanical hyperalgesia were assessed two times for both hind paws.
(§1) Testing: 120 minutes after treatment. N=4/model/test. Results are expressed for each group as a percentage of activity calculated from the mean value of the vehicle-treated animals and compared to naïve animals, control paw, or cut-off value, depending on the test.
Test [2] has as its system rats. The experiment in a line: Post-operative pain: Brennan model, electronic Von Frey test (Example 13). As to conditions: Morphine 4 mg/kg s.c. In kind it is in vivo, rat. The text has this:
Surgery: Surgery was done under gas anesthesia (2.5% isoflurane/3 L/min). For all rats, the plantar aspect of the left hind paw was exposed and a 1 cm longitudinal incision was made using a surgical blade, through the skin and fascia of the plantar aspect of the foot, starting 0.5 cm from the proximal edge of the heel and extending toward the toes. The plantaris muscle was elevated and incised longitudinally whereas the insertions remained intact. After hemostasis with gentle pressure, the skin was stitched up with two sutures. After surgery, animals recovered in their cages.
Electronic Von Frey Test: Tactile allodynia was assessed using the electronic Von Frey test 24 h after surgery. […] The apparatus exerted a steady force on the hind paws. […] Each reaction threshold measurement was repeated three times for both hind paws with intervals of approximately 2 to 3 mins.

Test [3] deals with rats. The experiment in a line: Acute and tonic pain: healthy rats, tail flick test (Example 13). As to conditions: Morphine 4 mg/kg s.c. For orientation: In hot-plate and tail-flick tests a longer latency is read as antinociception.
Method: Tail Flick Test. A radiant heat was applied on the tail. When the rat felt discomfort, it reacted by a sudden tail movement (tail flick) which automatically stopped the stimulation and the timer for the measurement by the animal reaction time or nociceptive reaction latency (period from the beginning of the stimulation until detection of the response of the animal). A cut-off was previously fixed at 10 sec in order to prevent tissue damage.
as §1
Test [4] has as its system rats. The test is described as follows: Acute and tonic pain: formalin test, score (Example 13). In kind it is in vivo, rat. The note with it: Morphine 4 mg/kg s.c. The method, then: Formalin Test. 2.5% formalin solution was injected by subplantar route into the right hind paw. Scoring of pain behavior was performed in rats for 36 minutes every 3 minutes according to the following scores:
0=normal behavior of the injected hind limb to support the body
1=slight touching of the injected paw on the floor to lightly support or not support the body
2=total withdrawal of the injected paw
3=licking, biting or shaking of the injected paw

The subject of test [5] is Sprague-Dawley rats, streptozotocin model. The test is described as follows: Rat model of diabetic neuropathy (STZ model), paw pressure test (Example 14). As to conditions: Compound I-1 10 mg/kg p.o., gabapentin 100 mg/kg p.o., morphine 4 mg/kg s.c., mean±s.e.m. Type of test: in vivo.

For `CN1CC[C@]23c4c5ccc(O)c4O[C@H]2[C@@H](O)C=C[C@H]3[C@H]1C5` [Morphine, reference compound], the “% of activity vs. vehicle” value turned out to be 69% with rats [1]; 88% with rats [2]; 66% with rats [3]; 57% in the test with rats [4] (Formalin test - score (early phase)); 38% with rats [4] (Formalin test - score (late phase)). Also, the “nociceptive threshold (paw pressure test)” value in test [5] (D18, 60 min post administration) is 420 ± 35 g; in test [5] (D18, 120 min post administration), 317 ± 27.6 g; in test [5] (D21, 120 min after dosing), 283 ± 16.7 g.
